Earlier results in patent publication US20100160366A1, “TREATMENT METHOD” (Schering Corporation, priority 2000, published 2010).

Assays:
allergic immune cells = allergic immune cells in vitro

In the case of `CCOC(=O)N1CCC(=C2c3ccc(Cl)cc3CCc3cccnc32)CC1` [loratadine], the activity of eosinophils (eosinophils) is listed as “inhibited”, the chemotaxis of eosinophils (eosinophils) is listed as “inhibited” and the “activation of monocytes as measured by superoxide anion production” value (monocytes) is listed as “reduced”. The “release of mast cell histamine” value (allergic immune cells) was “inhibit”, the “release of the cysteinyl leukotriene LTC4” value (allergic immune cells) was “inhibit” and the “inflammatory cytokine IL-6” value (IL-6) was “inhibited”. The “adhesion molecule ICAM-1 expression” value (ICAM-1) was “reduced”.
